{"source": "paper PMC6767236", "about": "“Selective Cannabinoid 2 Receptor Agonists as Potential Therapeutic Drugs for the Treatment of Endotoxin-Induced Uveitis” (Molecules, 2019)", "key": {"[1]": {"system": "adhesion of adoptively-transferred leukocytes in the iridial microcirculation", "experiment": "Adoptive transfer of WT leukocytes into neutrophil-depleted WT mice with EIU", "assay_type": "in vivo, mouse", "conditions": "topical 1.5% w/v, 6 h post-EIU", "experimental": "For adoptive transfer experiments, calcein-AM-labelled leukocytes were visualized by fluorescence (495 nm excitation) in the iridial microcirculation using a Leica DMLM epifluorescence microscope (Leica, Wetzlar, Germany) equipped with a mercury-arc light source (LEG EBQ 100, Carl Zeiss, Jena, Germany) and captured by a CCD video camera (SIT 68, DAGE MTI, Michigan, IN, USA). Videos were recorded using WinDV Capture software (Mourek, Prague, Czech Republic) and stored on an external hard drive.\nDuring IVM animals were placed on a heating pad in a stereotactic frame, and Tear-Gel® (Novartis Pharmaceuticals Canada Inc., Dorval, QC, Canada) was applied to their cornea. The iris was divided into four equal quadrants by drawing two superficial lines on the cornea, lengthwise and widthwise. […] Two to four videos of each quadrant were recorded for 30 s each. Videos were analyzed off-line without knowledge of the treatment groups. […] Using ImageJ software (National Institute of Health, Bethesda, MD, USA) the number of adherent leukocytes within each vessel segment was calculated by measuring the diameter and length of vessel segment studied, assuming a cylindrical geometry of blood vessels. Adherent leukocytes were expressed as number of cells per mm^2 of endothelial surface. […] The number of rolling leukocytes was counted for 30 s and used to calculate the number of rolling leukocytes per min. […]"}, "human CB1R": {"target": "T1, human CB1R (Homo sapiens, UniProt P21554)", "T1 construct": "host or cells: CHO", "T1 sequence (P21554 whole entry)": "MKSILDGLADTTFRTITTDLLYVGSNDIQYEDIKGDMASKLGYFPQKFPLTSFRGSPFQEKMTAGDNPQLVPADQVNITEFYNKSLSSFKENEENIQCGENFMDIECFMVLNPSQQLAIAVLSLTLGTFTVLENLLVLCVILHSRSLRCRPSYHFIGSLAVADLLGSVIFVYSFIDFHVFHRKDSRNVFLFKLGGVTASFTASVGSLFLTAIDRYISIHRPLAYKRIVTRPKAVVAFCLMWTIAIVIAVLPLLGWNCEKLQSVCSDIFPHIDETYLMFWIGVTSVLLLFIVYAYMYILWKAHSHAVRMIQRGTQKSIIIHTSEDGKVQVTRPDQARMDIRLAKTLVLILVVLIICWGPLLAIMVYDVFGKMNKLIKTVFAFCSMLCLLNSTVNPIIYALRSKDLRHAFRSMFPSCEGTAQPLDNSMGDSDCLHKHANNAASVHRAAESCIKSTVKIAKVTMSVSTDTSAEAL", "experiment": "PathHunter β-arrestin recruitment assay, hCB1R", "assay_type": "cell-based", "conditions": "read-out: hCB1R: beta arrestin EC50", "experimental": "Assays were carried out using the PathHunter hCB1_bgal, hCB2_bgal, or mCB2_bgal CHOK1 β-arrestin recruitment assay kit (DiscoveRx, Fremont, CA, USA) as previously described. A total of 5000 cells per well were seeded in 384-well plates (Perkin Elmer, MA, USA) containing 20 μL cell culture medium and incubated for 16–18 h at 37 °C and 5% CO2. Cells were stimulated with 10 μM of each agonist or 11 increasing concentrations and incubated for 90 min at 37 °C and 5% CO2. […] The cells were incubated for 90 min at 37 °C and 5% CO2. Compounds in DMSO stock solutions were added using a HP D300 Digital Dispenser (Tecan, Mannedorf, Switzerland). The final concentration of organic solvent per assay point was ≤ 0.1%. The PathHunter Detection mixture was used, according to the manufacturer’s protocol, to determine the β-galactosidase enzyme activity. Detection mixture, 12 μL per well, was added and the plate was incubated for 1 h in the dark at room temperature. Chemiluminescence, indicated as relative light unit, was measured on an EnVision multilabel plate reader (Perkin Elmer, MA, USA)."}, "[2]": {"system": "leukocyte-endothelial adhesion in the iridial microcirculation", "experiment": "Endotoxin-induced uveitis (EIU), intravital microscopy, CB2R-/- mice", "assay_type": "in vivo", "conditions": "topical 1.5% w/v, 6 h after LPS", "from_the_text": "Male BALB/c wild-type (WT; 25-30 g; Charles River, QC, Canada) and age-matched (6–8 weeks) CB2R knockout mice (CB2R^-/-) were used for experiments. CB2R^-/- mice were obtained by crossing male C57BL/6J CB2R^-/- mice (strain B6.129P2-Cnr2tm1Dgen/J; Jackson Laboratory, Bar Harbor, ME, USA) with inbred BALB/c female mice (Charles River) for ten generations. Heterozygote mice from separate parents were then bred for a homozygote knock-out of the CB2R^-/-. CB2R^-/- was confirmed via genotyping using DNA extracted from ear punches and the Accustart II Mouse Genotyping Kit (Quanta Biosciences, MD, USA). […]\nIVM was conducted as previously described in Toguri et al. (2014). […] The iridial microcirculation was observed using an Olympus OV100 Small Animal Imaging System (Olympus, Tokyo, Japan), which contains an MT-20 light source, fluorescence excitation from a xenon lamp (150 W) and an excitation filter for rhodamine-6G (excitation 515–560 nm, emission 590 nm). Images were captured in real-time by a black and white DP70 CCD C-mount camera and digitally recorded using HCImage software (Hamamatsu, Herrsching, Germany).\nDuring IVM animals were placed on a heating pad in a stereotactic frame, and Tear-Gel® (Novartis Pharmaceuticals Canada Inc., Dorval, QC, Canada) was applied to their cornea. […] Two to four videos of each quadrant were recorded for 30 s each. […]"}}}
{"smiles": "CC(C)(C)c1nc(N2CC[C@H](O)C2)c2nnn(Cc3nnnn3C3CC3)c2n1", "note": "[RO6871304, (3S)-1-{5-tert-butyl-3-[(1-cyclopropyl-1H-tetrazol-5-yl)methyl]-3H-[1,2, 3]triazolo[4,5-d]pyrimidin-7-yl}pyrrolidin-3-ol]", "values": [{"measurement": "decrease of LPS-induced adhesion of adoptively-transferred leukocytes compared to vehicle", "setting": "[1]", "value": 64, "unit": "fold"}, {"measurement": "EC50", "setting": "human CB1R", "value": "> 30", "unit": "µM"}, {"measurement": "leukocyte adherence in CB2R-/- mice with EIU", "setting": "[2]", "value": "no significant reduction in leukocyte adherence"}]}
